From patent US20250353891A1 (MEDIMMUNE LIMITED, priority 2022, published 2025) come the findings set out here.

What is called pEC50 is −log10 of the EC50, conventionally taken in molar units.

The target in assay [1] is human GLP-1 receptor (hGLP-1R) (Homo sapiens, UniProt P43220). The assay is described as follows: cAMP production (HTRF) in CHO cells expressing hGLP-1R. It counts as cell-based. Set-up: expressed in transfected cells. As to conditions: for pEC50: geometric mean, read-out: hGLP-1R EC50; for % Relative Potency Ratio: % GLP-1R activity relative to GLP-1 / % GlucR activity relative to glucagon. Put shortly:
(§1)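 Cells were resuspended in assay buffer at batch-optimized density, typically 1×10^5 cells/mL for hGLP-1R and 2×10^5 cells/mL for hGCGR. After 30 min incubation at room temperature with compound, cAMP was measured by two-step HTRF. EC50 values came from 4-parameter logistic fits of % Delta F.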
In general terms: Changes in cAMP serve as a functional read-out for many G protein-coupled receptors.

In assay [2] the target is human glucagon receptor (hGCGR) (Homo sapiens, UniProt P47871). In words: cAMP production (HTRF) in CHO cells expressing hGCGR. Set-up: expressed in transfected cells. As to conditions: geometric mean, read-out: hGluc-R EC50. The format is cell-based. Put shortly:
as §1

[3] abbreviates: Table 6, peptides modified at position 17, cAMP in CHO hGLP-1R cells.
[4] abbreviates: Table 6, peptides modified at position 17, cAMP in CHO hGCGR cells.

pEC50: −log10 of the molar value. Read-outs that look alike come from different tables or passages of the source. Starred links: 1 amine or outer side, 2 acyl side, 3 side chain; linkers in the order of their positions; H or OH if unused. Non-standard residues stand in square brackets, D forms with d. Residues, ends and D or L forms follow the SMILES beside them. Groups on a side chain read outwards from the residue. *: point of attachment. C20 diacid = O=C(O)CCCCCCCCCCCCCCCCCCC(=O)*; C18 diacid = O=C(O)CCCCCCCCCCCCCCCCC(=O)*; γGlu = O=C(O)[C@H](CCC(=O)[*:2])N[*:1]; αMeF = C[C@](N)(Cc1ccccc1)C(=O)O; PEG4 = NCCOCCOCCOCCOCCC(=O)O; AEEA = NCCOCCOCC(=O)O; Aib = CC(C)(N)C(=O)O

Sequence of human glucagon receptor (hGCGR) (P47871 26-477): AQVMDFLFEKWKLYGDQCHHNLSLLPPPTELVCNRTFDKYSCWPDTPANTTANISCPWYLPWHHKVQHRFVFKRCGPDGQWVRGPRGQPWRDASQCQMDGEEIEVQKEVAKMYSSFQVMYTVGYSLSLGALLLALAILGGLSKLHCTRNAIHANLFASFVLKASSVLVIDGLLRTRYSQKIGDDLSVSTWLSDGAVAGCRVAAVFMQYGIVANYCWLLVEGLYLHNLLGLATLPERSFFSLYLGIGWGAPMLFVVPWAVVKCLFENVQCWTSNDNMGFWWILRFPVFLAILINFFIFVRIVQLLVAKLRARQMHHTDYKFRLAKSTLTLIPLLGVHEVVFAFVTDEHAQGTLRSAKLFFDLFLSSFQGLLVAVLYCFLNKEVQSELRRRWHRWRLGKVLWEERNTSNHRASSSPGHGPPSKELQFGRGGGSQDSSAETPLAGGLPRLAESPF
Sequence of human GLP-1 receptor (hGLP-1R) (P43220 24-463): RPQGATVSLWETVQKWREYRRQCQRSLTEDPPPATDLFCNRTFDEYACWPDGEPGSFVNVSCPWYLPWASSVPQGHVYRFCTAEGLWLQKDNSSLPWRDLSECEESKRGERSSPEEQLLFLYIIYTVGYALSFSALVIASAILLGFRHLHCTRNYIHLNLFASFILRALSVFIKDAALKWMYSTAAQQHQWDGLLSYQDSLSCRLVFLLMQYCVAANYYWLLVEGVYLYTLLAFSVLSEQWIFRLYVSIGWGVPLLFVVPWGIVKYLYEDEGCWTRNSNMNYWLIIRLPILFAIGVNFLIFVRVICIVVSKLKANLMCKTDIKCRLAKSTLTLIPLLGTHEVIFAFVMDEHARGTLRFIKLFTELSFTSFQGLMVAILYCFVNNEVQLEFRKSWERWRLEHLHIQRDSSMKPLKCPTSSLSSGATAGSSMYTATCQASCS

Regarding `CC(C)C[C@H](NC(=O)[C@H](Cc1c[nH]c2ccccc12)NC(=O)[C@H](C)NC(=O)[C@@H](NC(=O)[C@H](Cc1ccccc1)NC(=O)[C@H](CC(=O)O)NC(=O)[C@H](CCCNC(=N)N)NC(=O)[C@H](C)NC(=O)[C@H](CCCNC(=N)N)NC(=O)[C@H](CCCCNC(=O)COCCOCCNC(=O)COCCOCCNC(=O)CC[C@H](NC(=O)CCCCCCCCCCCCCCCCCCC(=O)O)C(=O)O)NC(=O)[C@@H](NC(=O)[C@H](CC(=O)O)NC(=O)[C@H](CC(C)C)NC(=O)[C@](C)(Cc1ccccc1)NC(=O)[C@H](CCCCN)NC(=O)[C@H](CO)NC(=O)[C@@H](NC(=O)[C@H](CC(=O)O)NC(=O)[C@H](CO)NC(=O)[C@@H](NC(=O)[C@H](Cc1ccccc1)NC(=O)[C@@H](NC(=O)CNC(=O)[C@H](CCC(N)=O)NC(=O)C(C)(C)NC(=O)[C@@H](N)Cc1c[nH]cn1)[C@@H](C)O)[C@@H](C)O)C(C)C)[C@@H](C)O)C(C)C)C(=O)N[C@@H](CC(C)C)C(=O)NC(C)(C)C(=O)N[C@H](C(=O)N[C@@H](CCC(=O)O)C(=O)O)[C@@H](C)O` [Peptide 410] (H-H[Aib]QGTFTSDVSK[αMeF]LDTK([AEEA-AEEA-γGlu-C20 diacid])RARDFVAWLL[Aib]TE-OH; N-terminus assumed), the results for the pEC50 in assay [1] (setting [3]) and in assay [2] (setting [4]) were 10.11 and 9.34, respectively. Further, the “% Relative Potency Ratio” value in assay [1] (Table 6) is given as 11.5.

Take `CC(C)C[C@H](NC(=O)[C@H](Cc1c[nH]c2ccccc12)NC(=O)[C@H](CCC(N)=O)NC(=O)[C@@H](NC(=O)[C@H](Cc1ccccc1)NC(=O)[C@H](CC(=O)O)NC(=O)[C@H](CCCCNC(=O)COCCOCCNC(=O)COCCOCCNC(=O)CC[C@H](NC(=O)CCCCCCCCCCCCCCCCC(=O)O)C(=O)O)NC(=O)[C@H](C)NC(=O)[C@H](CCCNC(=N)N)NC(=O)[C@H](CCCNC(=N)N)NC(=O)[C@H](CO)NC(=O)[C@H](CC(=O)O)NC(=O)[C@H](CC(C)C)NC(=O)[C@](C)(Cc1ccccc1)NC(=O)[C@H](CCCCN)NC(=O)[C@H](CO)NC(=O)[C@H](Cc1ccc(O)cc1)NC(=O)[C@H](CC(=O)O)NC(=O)[C@H](CO)NC(=O)[C@@H](NC(=O)[C@H](Cc1ccccc1)NC(=O)[C@@H](NC(=O)CNC(=O)[C@H](CCC(N)=O)NC(=O)C(C)(C)NC(=O)[C@@H](N)Cc1c[nH]cn1)[C@@H](C)O)[C@@H](C)O)C(C)C)C(=O)N[C@H](C(=O)NCCOCCOCCOCCOCCC(N)=O)C(C)C` [Peptide 312] (H-H[Aib]QGTFTSDYSK[αMeF]LDSRRAK([AEEA-AEEA-γGlu-C18 diacid])DFVQWLV[PEG4]-NH2; N-terminus assumed): the pEC50 in assay [1] (Table 7, peptides modified at position 20, cAMP in CHO hGLP-1R cells) was 9.82; in assay [2] (Table 7, peptides modified at position 20, cAMP in CHO hGCGR cells), 8.56. Moreover, in assay [1] (Table 7), the “% Relative Potency Ratio” value is reported as 36.1.

Consider `CC[C@H](C)[C@H](NC(=O)[C@H](CO)NC(=O)[C@H](CCCCNC(=O)COCCOCCNC(=O)COCCOCCNC(=O)CC[C@H](NC(=O)CCCCCCCCCCCCCCCCC(=O)O)C(=O)O)NC(=O)[C@@H](NC(=O)[C@](C)(Cc1ccccc1)NC(=O)[C@H](CC(=O)O)NC(=O)[C@H](CCC(N)=O)NC(=O)[C@H](C)NC(=O)[C@H](C)NC(=O)[C@H](CCCNC(=N)N)NC(=O)[C@H](CO)NC(=O)[C@H](CC(=O)O)NC(=O)[C@H](CC(C)C)NC(=O)[C@](C)(Cc1ccccc1)NC(=O)[C@H](CCCCN)NC(=O)[C@H](CO)NC(=O)[C@@H](NC(=O)[C@H](CC(=O)O)NC(=O)[C@H](CO)NC(=O)[C@@H](NC(=O)[C@](C)(Cc1ccccc1)NC(=O)[C@H](CO)NC(=O)CNC(=O)[C@H](Cc1c[nH]cn1)NC(=O)C(C)(C)NC(=O)[C@@H](N)Cc1c[nH]cn1)[C@@H](C)O)C(C)C)C(C)C)C(=O)N[C@@H](C)C(=O)N[C@@H](CC(N)=O)C(=O)N[C@H](C(N)=O)[C@@H](C)O` [Peptide 379] (H-H[Aib]HGS[αMeF]TSDVSK[αMeF]LDSRAAQD[αMeF]VK([AEEA-AEEA-γGlu-C18 diacid])SIANT-NH2), for which the “% Relative Potency Ratio” value in assay [1] is on record as 2.4. The pEC50 in assay [1] (cAMP, CHO cells, 0.1% BSA) is 10.14; in assay [2] (cAMP, CHO cells, 0.1% BSA) it was 10.07.

Turning to `CC(C)C[C@H](NC(=O)[C@H](Cc1c[nH]c2ccccc12)NC(=O)[C@H](CCC(N)=O)NC(=O)[C@@H](NC(=O)[C@H](Cc1ccccc1)NC(=O)[C@H](CC(=O)O)NC(=O)[C@H](CCC(N)=O)NC(=O)[C@H](C)NC(=O)[C@H](CCCNC(=N)N)NC(=O)[C@H](CCCCNC(=O)COCCOCCNC(=O)COCCOCCNC(=O)CC[C@H](NC(=O)CC[C@H](NC(=O)CCCCCCCCCCCCCCCCC(=O)O)C(=O)O)C(=O)O)NC(=O)[C@@H](NC(=O)[C@H](CC(=O)O)NC(=O)[C@H](CC(C)C)NC(=O)[C@](C)(Cc1ccccc1)NC(=O)[C@H](CCCCN)NC(=O)[C@H](CO)NC(=O)[C@@H](NC(=O)[C@H](CC(=O)O)NC(=O)[C@H](CO)NC(=O)[C@@H](NC(=O)[C@H](Cc1ccccc1)NC(=O)[C@@H](NC(=O)CNC(=O)[C@H](CCC(N)=O)NC(=O)C(C)(C)NC(=O)[C@@H](N)Cc1c[nH]cn1)[C@@H](C)O)[C@@H](C)O)C(C)C)[C@@H](C)O)C(C)C)C(=O)N[C@@H](CC(C)C)C(=O)N[C@@H](CCC(=O)O)C(=O)NC(C)(C)C(=O)NCC(N)=O` [Peptide 468], the pEC50 in assay [1] (setting [3]) was 10.17; in assay [2] (setting [4]), 9.53. Also, in assay [1] (Table 6), the “% Relative Potency Ratio” value amounted to 8.6.

`CC(C)C[C@H](NC(=O)[C@H](Cc1c[nH]c2ccccc12)NC(=O)[C@H](CCC(N)=O)NC(=O)[C@@H](NC(=O)[C@H](Cc1ccccc1)NC(=O)[C@H](CC(=O)O)NC(=O)[C@H](CCC(N)=O)NC(=O)[C@H](C)NC(=O)[C@H](CCCNC(=N)N)NC(=O)[C@H](CCCCNC(=O)COCCOCCNC(=O)COCCOCCNC(=O)CC[C@H](NC(=O)CC[C@H](NC(=O)CCCCCCCCCCCCCCCCCCC(=O)O)C(=O)O)C(=O)O)NC(=O)[C@@H](NC(=O)[C@H](CC(=O)O)NC(=O)[C@H](CC(C)C)NC(=O)[C@](C)(Cc1ccccc1)NC(=O)[C@H](CCCCN)NC(=O)[C@H](CO)NC(=O)[C@@H](NC(=O)[C@H](CC(=O)O)NC(=O)[C@H](CO)NC(=O)[C@@H](NC(=O)[C@H](Cc1ccccc1)NC(=O)[C@@H](NC(=O)CNC(=O)[C@H](CCC(N)=O)NC(=O)C(C)(C)NC(=O)[C@@H](N)Cc1c[nH]cn1)[C@@H](C)O)[C@@H](C)O)C(C)C)[C@@H](C)O)C(C)C)C(=O)N[C@@H](CC(C)C)C(=O)N[C@@H](CCC(=O)O)C(=O)NC(C)(C)C(=O)NCC(N)=O` [Peptide 469] (H-H[Aib]QGTFTSDVSK[αMeF]LDTK([AEEA-AEEA-γGlu-γGlu-C20 diacid])RAQDFVQWLLE[Aib]G-NH2): the negative logarithm of the EC50 (pEC50) in assay [1] (setting [3]) was 9.59; in assay [2] (setting [4]), 9.27. The “% Relative Potency Ratio” value in assay [1] (Table 6) is 4.2.
